From patent US12522612B2, “PDE4 inhibitors, pharmaceutical compositions, and therapeutic applications” (BioTheryX, Inc., priority 2019, dated 2026)

Legend:
TNF-α = assay: Cell-based TNF-α inhibition assay in LPS-induced PBMCs (Meso Scale); conditions: PBMC, PBMCs pretreated 1 h, LPS 100 ng/mL 18-24 h, relative to stimulated DMSO control; for inhibition at 1 µM: compound concentration 1 μM; for inhibition at 0.1 µM: compound concentration 0.1 μM
In short: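 Thawed human PBMCs (200,000/well) in RPMI/10% FBS were pretreated with compound or DMSO for 1 h, then stimulated with LPS (100 ng/mL) for 18-24 h. Supernatant TNF-α was measured by Meso Scale; activity expressed as percent of stimulated DMSO control (percent inhibition).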

PDE4B = target: T1, PDE4B (Homo sapiens, UniProt Q07343); assay: Protein degradation assay in A549 cells, western blot, PDE4B; assay type: cell-based; conditions: 24 h treatment, read-out: PDE4B degradation relative to DMSO
T1 construct: Whole cell extracts were prepared using an immunoprecipitation (IP) lysis buffer; endogenous in cells; host or cells: A549
T1 sequence (Q07343 whole entry): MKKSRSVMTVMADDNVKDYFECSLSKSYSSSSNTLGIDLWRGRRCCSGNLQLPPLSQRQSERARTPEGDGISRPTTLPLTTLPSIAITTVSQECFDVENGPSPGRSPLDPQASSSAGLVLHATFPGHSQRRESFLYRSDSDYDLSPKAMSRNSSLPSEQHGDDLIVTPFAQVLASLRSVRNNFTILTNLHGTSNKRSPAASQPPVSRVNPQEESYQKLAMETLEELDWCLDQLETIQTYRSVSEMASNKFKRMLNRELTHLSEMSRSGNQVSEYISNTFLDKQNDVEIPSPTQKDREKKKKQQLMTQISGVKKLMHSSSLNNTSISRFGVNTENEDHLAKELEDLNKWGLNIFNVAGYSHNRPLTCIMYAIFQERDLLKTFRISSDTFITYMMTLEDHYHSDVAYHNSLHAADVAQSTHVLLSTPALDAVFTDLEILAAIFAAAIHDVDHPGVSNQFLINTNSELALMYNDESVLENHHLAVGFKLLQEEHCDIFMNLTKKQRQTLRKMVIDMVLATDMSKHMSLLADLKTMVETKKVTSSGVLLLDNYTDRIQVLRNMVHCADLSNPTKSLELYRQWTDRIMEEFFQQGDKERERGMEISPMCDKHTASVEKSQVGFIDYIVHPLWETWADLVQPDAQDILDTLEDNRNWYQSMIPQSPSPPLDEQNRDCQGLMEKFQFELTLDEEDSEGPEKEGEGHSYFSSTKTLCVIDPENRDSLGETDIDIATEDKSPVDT
Protocol: (§1) A549 cells were grown in RPMI 1640 media supplemented with 10% fetal bovine serum, streptomycin, and penicillin. The cells were plated in 6-well plates in the growth media. The next day, fresh growth media were replaced on the cells. The cells were then treated with a compound for 24 h at predetermined concentrations. Whole cell extracts were prepared using an immunoprecipitation (IP) lysis buffer. Briefly, the cells were washed once in PBS, and the cell pellets were resuspended in the IP lysis buffer and incubated for 15 min on ice. Cells debris was removed by centrifugation and the cleared whole cell lysates were transferred to new tubes for further analysis.
(§2) For a western blot analysis, the whole cell protein extracts were separated on 4-12% SDS-polyacrylamide gels, transferred to nitrocellulose, and probed with primary antibodies. Membranes were subsequently washed and probed with IRDYE® secondary antibodies. The signals were detected using an ODYSSEY® Imaging System. The antibodies used in the assay included anti-PDE4B antibody; anti-PDE4D antibodies (top, bottom, and short isoform); β-actin mouse monoclonal antibody; IRDYE® 680RD goat anti-rabbit antibody; and IRDYE® 800CW goat anti-mouse antibody. Compounds B2 to B4, B18, B49 to B52, B76, B77, B79, B81 to B83, B88, B89, and B91 were determined to be able to degradate PDE4B as high as about 50% relative to DMSO.

PDE4D short isoform = assay: Protein degradation assay in A549 cells, western blot, PDE4D; assay type: cell-based; conditions: 24 h treatment, same conditions
Protocol: as §1, §2

Row | SMILES | inhibition at 1 µM (TNF-α) [%] | Dmax (PDE4B) [%] | inhibition at 0.1 µM (TNF-α) [%] | PDE4D degradation (result in words) (PDE4D short isoform)
1 | O=C1CCC(N2Cc3c(cc(F)cc3C3CCN(CCCOc4cc(C(=O)Nc5c(Cl)cncc5Cl)ccc4OC(F)F)CC3)C2=O)C(=O)N1 (stereo not drawn) [Compound B83, N-(3,5-Dichloropyridin-4-yl)-4-(difluoromethoxy)-3-(3-(4-(2-(2,6-dioxopiperidin-3-yl)-6-fluoro-1-oxoisoindolin-4-yl)piperidin-1-yl)propoxy)benzamide] | 20 to 40 | ≤ 50 |  | 
2 | O=C1CCC(N2Cc3c(cc(F)cc3C3CCN(CCCCCCCOc4cc(C(=O)Nc5c(Cl)cncc5Cl)ccc4OC(F)F)CC3)C2=O)C(=O)N1 (stereo not drawn) [Compound B4, N-(3,5-dichloropyridin-4-yl)-4-(difluoromethoxy)-3-((7-(4-(2-(2,6-dioxopiperidin-3-yl)-6-fluoro-1-oxoisoindolin-4-yl)piperidin-1-yl)heptyl)oxy)benzamide] | ≥ 60 | ≤ 50 | ≥ 60 | 
3 | CCOc1cc([C@@H](CS(C)(=O)=O)N2C(=O)c3cccc(NC(C)=O)c3C2=O)ccc1OC [apremilast] |  |  |  | did not degradate the PDE4D
4 | CCOc1cc([C@@H](CS(C)(=O)=O)N2C(=O)c3cc(CCCCCCCN4CCC(c5cc(F)cc6c5CN(C5CCC(=O)NC5=O)C6=O)CC4)cc(NC(C)=O)c3C2=O)ccc1OC (stereo partly drawn) [Compound B2, N-(6-(7-(4-(2-(2,6-dioxopiperidin-3-yl)-6-fluoro-1-oxoisoindolin-4-yl)piperidin-1-yl)heptyl)-2-((S)-1-(3-ethoxy-4-methoxyphenyl)-2-(methylsulfonyl)ethyl)-1,3-dioxoisoindolin-4-yl)acetamide] | ≥ 60 | ≤ 50 |  | 
5 | COc1ccc(N2Cc3ccccc3C2=O)cc1OCCCCCCCN1CCC(c2cc(F)cc3c2CN(C2CCC(=O)NC2=O)C3=O)CC1 (stereo not drawn) [Compound B49, 3-(6-Fluoro-4-(1-(7-(2-methoxy-5-(1-oxoisoindolin-2-yl)phenoxy)heptyl)piperidin-4-yl)-1-oxoisoindolin-2-yl)piperidine-2,6-dione] | < 20 | ≤ 50 |  | 
6 | COc1ccc(N2C(=O)c3ccc(N)cc3C2=O)cc1OCCCCCCCN1CCC(c2cc(F)cc3c2CN(C2CCC(=O)NC2=O)C3=O)CC1 (stereo not drawn) [Compound B52, 5-Amino-2-(3-((7-(4-(2-(2,6-dioxopiperidin-3-yl)-6-fluoro-1-oxoisoindolin-4-yl)piperidin-1-yl)heptyl)oxy)-4-methoxyphenyl)isoindoline-1,3-dione] | < 20 | ≤ 50 |  | 
7 | CCOc1cc([C@@H](CS(C)(=O)=O)N2C(=O)c3cccc(NC(=O)CCCCCCCCN4CCC(c5cc(F)cc6c5CN(C5CCC(=O)NC5=O)C6=O)CC4)c3C2=O)ccc1OC (stereo partly drawn) [Compound B77, 9-(4-(2-(2,6-Dioxopiperidin-3-yl)-6-fluoro-1-oxoisoindolin-4-yl)piperidin-1-yl)-N-(2-((S)-1-(3-ethoxy-4-methoxyphenyl)-2-(methylsulfonyl)ethyl)-1,3-dioxoisoindolin-4-yl)nonanamide] | ≥ 60 | ≤ 50 | 40 to 60 | 
